No end group written: not given here.
Legend:
Raw 264.7 cells = test: TNF-alpha ELISA assay (TNF-alpha secretion); format: cell-based; details: 10 μM, 6 hours, FIG. 4
Procedure: Raw 264.7 cells (ATCC TIB-71; 3,000 cells/well) were cultured for 12 hours in DMEM medium containing 10% serum in a 96-well plate, and then cultured in serum-free medium for about 3 hours. Then, Neo-Pep polypeptide (SEQ ID NO: 1) and its fragments (SEQ ID NOS: 2 to 4) were added to the DMEM medium with the concentration of 10 μM each, and then cultured for 6 hours.
Then, the medium was collected and centrifuged at 1,000 g for 10 minutes, and secreted TNF-α was detected using a TNF-α ELISA assay (BD Biosciences, USA) according to the manufacturer's instructions.

[1] = tested on: normal epithelium cells (vero); test: Cytotoxicity assay (Cell Counting Kit-8 assay) on normal epithelium cells; format: cell-based; details: 10 μM, 24 hours, CCK-8, FIG. 3
Procedure: To confirm the proliferation and cytotoxicity of the fibroblasts, the CCK-8 assay (Cell Counting Kit-8 assay) of Dojindo Molecular Technologies (Japan) was performed according to the manufacturer's instructions.
First, human foreskin fibroblast (3,000 cells/well; Promocell) and normal epithelium cells (vero; 3,000 cells/well) were cultured in DMEM medium containing 10% serum in 96-well plates for 12 hours, and then cultured in serum-free medium for about 3 hours. Then, Neo-Pep polypeptide (SEQ ID NO: 1) and fragments thereof (SEQ ID NOS: 2 to 4) were added to the DMEM medium with the concentration of 10 μM each, and then cultured for 24 hours.
Then, 10 μl of CCK-8 solution (Dojindo Molecular Technologies, Japan) was added to each well of the medium, and the absorbance was analyzed at 450 nm using a microplate reader according to the manufacturer's instructions.

Sequence	secreted TNF-alpha level versus control group (Raw 264.7 cells)	epithelium cell viability versus control group [1]
AVLKRLEQKGAEADQIIEYLKQQVSLLKEKAILQATLREEK [Neo-Pep]	very low and similar to that of control group	–
IEYLKQQVSLLKEKA [Polypeptide S1400, IEYLKQQVSLLKEKA]	very low and similar to that of control group	slightly lower
KGAEADQIIEYLKQQ [Polypeptide S1300, KGAEADQIIEYLKQQ]	very low and similar to that of control group	–
RLEQKGAEADQIIEY [Polypeptide S1200, RLEQKGAEADQIIEY]	very low and similar to that of control group	–

From patent US10800824B2, “AIMP1 protein fragment and skin-protecting composition containing same as active ingredient” (NEOMICS CO., LTD., priority 2016, dated 2020)
